From patent US20190183138A1, “MILK COAGULANT AND METHOD FOR PRODUCING CHEESE” (CHINA AGRICULTURAL UNIVERSITY, priority 2017, published 2019)
Square brackets hold non-standard residues; d marks the D form. Peptide text beside a SMILES is read from it. * marks the point of attachment. Sta = CC(C)C[C@H](N)[C@@H](O)CC(=O)O; Isovaleryl = CC(C)CC(=O)*

Tests used:
[1] = test system: C. otophyllum protease QA; format: biochemical, Cynanchum otophyllum Schneid.; details: inhibitor 8 mmol/L, 37° C., 30 min
Procedure: (§1) The caseinolytic activities of the C. otophyllum proteases were determined using a method modified from Mohanty et al. (2003). The substrate was prepared by dissolving 1% (wt/vol) of whole casein in 10 mmol/L of citric acidphosphate buffer (pH 6.5). The assay was performed by incubating 1.1 mL of substrate with 0.1 mL of partially purified protease extracted solution under 37° C. for 30 min and terminated using 1.8 mL of 5% (wt/vol) trichloroacetic acid (TCA). The blank control was prepared by adding the same amount of TCA to the protease extracted solution, then adding the substrate. After 30 min standing at room temperature, the completely precipitated proteins were removed by centrifuging at 5,000 × g for 20 min at room temperature. The protein content in the supernatant was then measured at 280 nm (UV-2102 PC, Unico Instrument Co. Ltd.). One unit of PA was defined as the amount of the protease extracted solution required for an increase of 0.01 in optical density in 1 min at 280 nm.
(§2) The type of protease was determined as described by Mazorra-Manzano et al. (2013) with modification.Different protease inhibitors (8 mmol/L, 0.1 mL), a serine protease (phenylmethylsulfonyl fluoride, PMSF), a cysteine protease [transepoxy-succinylleucyl-amido-(4-guanidino)-butane, E-64], a metallo protease (EDTA), and an aspartic protease (pepstatin A), were added to 1 mL of the proteases. The mixtures were incubated at 37° C. for 30 min, then PA was evaluated. The percentage inhibition was calculated as follows:
(§3) percentage inhibition=100−[100−(residual activity/activity without inhibitor)].

[2] = test system: C. otophyllum protease QC; format: biochemical, Cynanchum otophyllum Schneid.; details: inhibitor 8 mmol/L, 37° C., 30 min
Procedure: as §1, §2, §3

[3] = test system: C. otophyllum protease QA; test: Effect of metal ions on milk-clotting activity; format: biochemical, Cynanchum otophyllum Schneid.; details: metal ion 10 mmol/L added to 12% (w/v) skim milk containing 10 mmol/L CaCl2, pH 6.5
From the text: (§4) Some metal ions as a cofactor can participate in the milk-clotting reaction, thus affecting activity of enzyme. Further, the skim milk is of increased iron strength after addition of salts, thus interfering the stability of casein micelle and the formation of the milk clot. […] The reason of the promotion on milk coagulant activity and the decrease in milk-clotting time by the calcium ions is that they combines with exposed α-casein and β-casein during aggregation of the casein (i.e. the second step of the milk-clotting reaction), so as to promote formation of the milk clot. Further, it has been investigated that the calcium ions protect enzyme, especially those being poor resistant to temperature, and stabilizes the structure of enzyme, thus an amount of CaCl2 is often added to protect the structure of enzyme during cheese production, for increasing activity and speeding milk-clotting.

[4] = test system: C. otophyllum protease QC; test: Effect of metal ions on milk-clotting activity; format: biochemical, Cynanchum otophyllum Schneid.; details: metal ion 10 mmol/L added to 12% (w/v) skim milk containing 10 mmol/L CaCl2, pH 6.5
From the text: as §4

12% skim milk = test: Milk clotting activity (MCA) assay, curd formation time; format: biochemical; details: 12% skim milk in 10 mM CaCl2, pH 6.5, 37° C.; FIG. 5
Procedure: The MCA of the C. otophyllum proteases was determined using a modified method of He et al. (2011). One milliliter of substrate (12% skim milk in 10 mM CaCl2, pH 6.5) was incubated under 37° C. for 5 min, then 0.1 mL of the protease extracted solution was added. The time needed for curd formation was recorded and the MCA was expressed in Soxhlet units (SU). One SU of MCA was defined as the amount of the protease extracted solution required to clot 1 mL of substrate within 40 min at 37° C.
where V stands for the volume of the substrate (mL); v stands for the volume of the protease extract; and t stands for the milk-clotting time (s).
The C. otophyllum proteases were extracted as described by Huang et al. (2011) with some modifications. The C. otophyllum leaves were cut into pieces, mixed with a buffer at different solid-liquid ratios (i.e. ratio of mass to volume) for extraction, and then left for 2 h under 4° C., thus obtaining an extracted solution. After successive filtration through 4 layers of cheesecloth and a 0.22-μm membrane, the filtrate was concentrated by ultrafiltration with a 10-kDa molecular weight cut-off membrane at 8000 × g for 40 minutes at 4° C., with the retentate obtained as the concentrated solution of C. otophyllum proteases, which was assayed for protein concentration following the method of Bradford (1976) and curd formation time for 12% (w/v) skim milk.

Row | Compound | effect on milk-clotting activity of QA [3] | effect on milk-clotting activity of QC [4] | also measured
1 | CC(C)C[C@H](NC(=O)[C@H]1O[C@@H]1C(=O)O)C(=O)NCCCCN=C(N)N [E-64, transepoxy-succinylleucyl-amido-(4-guanidino)-butane] |  |  | PA of QA in presence of inhibitor ([1]; 0.1 mL to 1 mL protease): 20 % of the control; PA of QC in presence of inhibitor ([2]; 0.1 mL to 1 mL protease): 20 % of the control
2 | CC(C)CC(=O)N[C@H](C(=O)N[C@H](C(=O)N[C@@H](CC(C)C)[C@@H](O)CC(=O)N[C@@H](C)C(=O)N[C@@H](CC(C)C)[C@@H](O)CC(=O)O)C(C)C)C(C)C [pepstatin A] (Isovaleryl-VV[Sta]A[Sta]-OH) |  |  | effect on the PA of QA [1]: does not affect; effect on the PA of QC [2]: does not affect
3 | copper | significant inhibition | significant inhibition | 
4 | zinc | significant inhibition | significant inhibition | 
5 | barium | no significant effect | no significant effect | 
6 | calcium | significant increased effect | significant increased effect | 
7 | O=S(=O)(F)Cc1ccccc1 [PMSF, phenylmethylsulfonyl fluoride] |  |  | reduction in the activity of QA ([1]; compared to the control): about 15%; reduction in the activity of QC ([2]; compared to the control): about 15%
8 | O=C(O)CN(CCN(CC(=O)O)CC(=O)O)CC(=O)O [EDTA] |  |  | effect on the PA of QA [1]: does not affect; effect on the PA of QC [2]: does not affect
9 | magnesium | no significant effect | no significant effect | 
10 | bromelain [reference compound] |  |  | MCA (milk-clotting activity) (12% skim milk): 222.2 SU/mg
11 | sodium | no significant effect | no significant effect | 
12 | lithium | no significant effect | no significant effect | 
13 | aluminium | significant increased effect | significant increased effect | 
14 | potassium | no significant effect | no significant effect | 
